From BindingDB's records for doi:10.1021/acs.jnatprod.5b00508 (Korea University, 2015)

Key:
[1] = Inhibition of amyloid beta (25 to 35 residues) (unknown origin) aggregate-induced toxicity in rat PC12 cells preincubated for 1 hr followed by amyloid beta challenge measured after 24 hrs by MTT assay
[2] = Inhibition of amyloid beta (1 to 42 residues) (unknown origin) aggregate-induced toxicity in rat PC12 cells assessed as cell viability at 4 to 100 ug/ml pre-incubated for 24 hrs with Abeta ( 1 to 42) followed by compound-Abeta (1 to 42) mixture addition to cells and measured after 24 hrs by MTT assay

Row | SMILES | EC50 [1] [µM] | EC50 [2] [µM]
1 | C[C@H]1CN2C[C@]34C[C@@]5(C(=O)Nc6c5ccc5c6C=CC(C)(C)O5)C(C)(C)[C@@H]3C[C@@]2(C1)C(=O)N4C | > 300 | –
2 | CC1=CC[C@@H]2[C@@]3(C)[C@@H](O)CC(=O)OC(C)(C)[C@@H]3CC[C@@]2(C)[C@]12Cc1c(c(C)c(C)oc1=O)O2 | > 300 | –
3 | O=C(/C=C/c1ccc(O)c(O)c1)O[C@H](Cc1ccc(O)c(O)c1)C(=O)O [Rosmarinic acid, 2] | 68.1 | 57.2
4 | CC1(C)C=Cc2cc(C(=O)O)ccc2O1 | 252 | –
5 | C[C@@H]1C[C@@]23C[C@H]4C(C)(C)[C@@]5(C[C@]4(CN2C1=O)N(C)C3=O)C(=O)Nc1c5ccc2c1C=CC(C)(C)O2 | > 300 | –
6 | C[C@@H]1C[C@@]23C[C@H]4C(C)(C)[C@@]5(C[C@]4(CN2C1=O)NC3=O)C(=O)Nc1c5ccc2c1OC=CC(C)(C)O2 | > 300 | –
7 | C[C@@H]1C[C@@]23C[C@H]4C(C)(C)[C@@]5(C[C@]4(CN2C1=O)NC3=O)C(=O)Nc1c5ccc2c1C=CC(C)(C)O2 | > 300 | 97.9
8 | C[C@H]1CN2C[C@]34C[C@@]5(C(=O)Nc6c5ccc5c6OC=CC(C)(C)O5)C(C)(C)[C@@H]3C[C@@]2(C1)C(=O)N4C | > 300 | 105
9 | CN1C(=O)[C@@]23CCC(=O)N2C[C@@]12C[C@@]1(C(=O)Nc4c1ccc1c4C=CC(C)(C)O1)C(C)(C)[C@@H]2C3 | 150 | 89.9
10 | CC1=CC[C@@H]2[C@@]3(C)C=CC(=O)OC(C)(C)[C@@H]3CC[C@@]2(C)[C@]12Cc1c(c(C)c(C)oc1=O)O2 | 65.4 | –
11 | CC(=O)O[C@H]1CC(=O)OC(C)(C)[C@@H]2CC[C@]3(C)[C@H](CC=C(C)[C@@]34C[C@]3(OC(C)=C(C)C3=O)C(=O)O4)[C@@]12C | 113 | –
